Reference: patent US7662832B2, “Pyrrolo[2,3-c]pyridine derivatives and processes for the preparation thereof” (priority 2004, dated 2010)
Where a name gives a salt, the structure may show the parent alone.

Each compound was assayed against Proton Pump (H^+/K^+-ATPase) (Sus scrofa, UniProt P19156) (assay: Inhibitory effects on proton pump (H^+/K^+-ATPase) activity). Conditions: hog gastric vesicles; K^+ stimulated H^+/K^+-ATPase activity; 30 minutes at 37° C.
Proton Pump (H^+/K^+-ATPase), sequence (P19156 2-1034 limits assumed): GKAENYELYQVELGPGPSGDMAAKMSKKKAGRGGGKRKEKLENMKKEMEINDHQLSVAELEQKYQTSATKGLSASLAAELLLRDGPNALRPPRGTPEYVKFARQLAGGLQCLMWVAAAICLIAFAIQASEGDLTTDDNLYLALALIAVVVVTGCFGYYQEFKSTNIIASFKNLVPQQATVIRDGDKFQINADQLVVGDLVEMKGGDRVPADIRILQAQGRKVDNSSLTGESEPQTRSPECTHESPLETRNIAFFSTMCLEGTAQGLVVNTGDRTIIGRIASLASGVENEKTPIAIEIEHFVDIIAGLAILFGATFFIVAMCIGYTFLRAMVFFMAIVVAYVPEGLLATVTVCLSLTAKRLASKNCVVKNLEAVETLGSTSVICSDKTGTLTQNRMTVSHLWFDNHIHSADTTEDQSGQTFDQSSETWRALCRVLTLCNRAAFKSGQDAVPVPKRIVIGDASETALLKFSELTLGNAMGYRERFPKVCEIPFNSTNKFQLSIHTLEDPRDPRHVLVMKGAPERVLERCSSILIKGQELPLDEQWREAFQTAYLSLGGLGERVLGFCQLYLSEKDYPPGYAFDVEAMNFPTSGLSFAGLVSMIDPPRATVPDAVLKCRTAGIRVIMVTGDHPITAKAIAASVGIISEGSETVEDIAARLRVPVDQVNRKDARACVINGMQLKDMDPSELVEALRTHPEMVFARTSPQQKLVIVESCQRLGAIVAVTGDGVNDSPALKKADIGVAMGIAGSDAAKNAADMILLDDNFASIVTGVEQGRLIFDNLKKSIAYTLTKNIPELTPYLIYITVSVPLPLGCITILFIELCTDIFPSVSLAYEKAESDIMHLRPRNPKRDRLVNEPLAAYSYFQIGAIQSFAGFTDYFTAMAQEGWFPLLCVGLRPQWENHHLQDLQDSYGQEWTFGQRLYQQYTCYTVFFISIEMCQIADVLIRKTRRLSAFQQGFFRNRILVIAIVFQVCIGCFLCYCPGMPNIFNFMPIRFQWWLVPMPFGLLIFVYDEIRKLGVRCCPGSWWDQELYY
Proton Pump (H^+/K^+-ATPase), sequence (P18434 whole entry partner): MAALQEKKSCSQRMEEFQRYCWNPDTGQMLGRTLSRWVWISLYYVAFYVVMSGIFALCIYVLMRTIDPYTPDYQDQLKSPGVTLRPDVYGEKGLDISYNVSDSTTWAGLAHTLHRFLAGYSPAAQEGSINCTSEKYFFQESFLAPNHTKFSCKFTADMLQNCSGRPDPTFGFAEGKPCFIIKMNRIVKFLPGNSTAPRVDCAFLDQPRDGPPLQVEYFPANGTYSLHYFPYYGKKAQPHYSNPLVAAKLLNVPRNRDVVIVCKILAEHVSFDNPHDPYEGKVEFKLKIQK
Format: biochemical
With `C=CCn1c(C)c(C)c2ccnc(COc3ccc(F)cc3)c21` [Example 2, 1-allyl-7-(4-fluorophenoxymethyl)-2,3-dimethyl-1H-pyrrolo[2,3-c]pyridine hydrochloride] the IC50 was 0.41 µM. `Cc1c(C)n(Cc2ccccc2)c2c(COc3ccc(F)cc3)nccc12` [Example 3, 1-benzyl-7-(4-fluorophenoxymethyl)-2,3-dimethyl-1H-pyrrolo[2,3-c]pyridine hydrochloride] showed an IC50 of 0.058 µM. With `COc1cccc(Cn2c(C)c(C)c3ccnc(COc4ccc(F)cc4)c32)c1` [Example 4, 7-(4-fluorophenoxymethyl)-1-(3-methoxybenzyl)-2,3-dimethyl-1H-pyrrolo[2,3-c]pyridine hydrochloride] the IC50 was 0.15 µM. `Cc1ccc(Cn2c(C)c(C)c3ccnc(COc4ccc(F)cc4)c32)cc1` [Example 5, 7-(4-fluorophenoxymethyl)-2,3-dimethyl-1-(4-methylbenzyl)-1H-pyrrolo[2,3-c]pyridine hydrochloride] gave an IC50 of 0.45 µM. In the case of `Cc1c(C)n(CC2CC2)c2c(COc3ccc(F)cc3)nccc12` [Example 7, 1-cyclopropylmethyl-7-(4-fluorophenoxymethyl)-2,3-dimethyl-1H-pyrrolo[2,3-c]pyridine hydrochloride], the IC50 is reported as 0.38 µM. With `Cc1ccc(OCc2nccc3c(C)c(C)n(Cc4ccccc4)c23)cc1` [Example 15, 1-benzyl-2,3-dimethyl-7-(p-tolyloxymethyl)-1H-pyrrolo[2,3-c]pyridine hydrochloride] the IC50 was 0.14 µM. In the case of `COc1cccc(Cn2c(C)c(C)c3ccnc(COc4ccc(C)cc4)c32)c1` [Example 16, 1-(3-methoxybenzyl)-2,3-dimethyl-7-(p-tolyloxymethyl)-1H-pyrrolo[2,3-c]pyridine hydrochloride], the IC50 is reported as 0.18 µM. Compound `Cc1ccc(Cn2c(C)c(C)c3ccnc(COc4ccc(C)cc4)c32)cc1` [Example 17, 2,3-dimethyl-1-(4-methylbenzyl)-7-(p-tolyloxymethyl)-1H-pyrrolo[2,3-c]pyridine hydrochloride] has an IC50 of 0.43 µM. `COCCn1c(C)c(C)c2ccnc(COc3ccc(F)cc3F)c21` [Example 34, 7-(2,4-difluorophenoxymethyl)-1-(2-methoxyethyl)-2,3-dimethyl-1H-pyrrolo[2,3-c]pyridine hydrochloride] showed an IC50 of 1.46 µM. `Cc1c(C)n(CC2CC2)c2c(COc3ccc(F)cc3F)nccc12` [Example 35, 1-cyclopropylmethyl-7-(2,4-difluorophenoxymethyl)-2,3-dimethyl-1H-pyrrolo[2,3-c]pyridine hydrochloride] gave an IC50 of 0.846 µM. `Cc1c(C)n(Cc2ccccc2)c2c(COc3ccc(Cl)cc3)nccc12` [Example 43, 1-benzyl-7-(4-chlorophenoxymethyl)-2,3-dimethyl-1H-pyrrolo[2,3-c]pyridine hydrochloride] gave an IC50 of 0.13 µM. Compound `COc1cccc(Cn2c(C)c(C)c3ccnc(COc4ccc(Cl)cc4)c32)c1` [Example 45, 7-(4-chlorophenoxymethyl)-1-(3-methoxybenzyl)-2,3-dimethyl-1H-pyrrolo[2,3-c]pyridine hydrochloride] has an IC50 of 0.071 µM. `COc1cccc(Cn2c(C)c(C)c3ccnc(COc4ccc(C)cc4C)c32)c1` [Example 68, 1-(3-methoxybenzyl)-2,3-dimethyl-7-(2,4-dimethylphenoxymethyl)-1H-pyrrolo[2,3-c]pyridine hydrochloride] was tested, and the IC50 was 0.212 µM. For `Cc1c(C)n(Cc2ccccc2)c2c(CNc3ccc(F)cc3)nccc12` [Example 89, N-(1-benzyl-2,3-dimethyl-1H-pyrrolo[2,3-c]pyridin-7-ylmethyl)-4-fluorophenylamine hydrochloride], the IC50 was 0.321 µM. In the case of `Cc1c(C)n(Cc2cccc(F)c2)c2c(CNc3ccc(F)cc3)nccc12` [Example 91, N-[1-(3-fluorobenzyl)-2,3-dimethyl-1H-pyrrolo[2,3-c]pyridin-7-ylmethyl]-4-fluorophenylamine hydrochloride], the IC50 is reported as 0.209 µM. `CC=Cn1c(C)c(C)c2ccnc(CNc3ccc(F)cc3)c21` [Example 108, N-(2,3-dimethyl-1-propenyl-1H-pyrrolo[2,3-c]pyridin-7-ylmethyl)-4-fluorophenylamine hydrochloride] gave an IC50 of 0.424 µM. `Cc1c(C)n(Cc2ccccc2)c2c(CN(C)c3ccc(F)cc3)nccc12` [Example 111, N-(1-benzyl-2,3-dimethyl-1H-pyrrolo[2,3-c]pyridin-7-ylmethyl)-N-(4-fluorophenyl)-methylamine hydrochloride] showed an IC50 of 0.025 µM. `Cc1c(C)n(CC2CC2)c2c(CN(C)c3ccc(F)cc3)nccc12` [Example 112, N-(1-cyclopropylmethyl-2,3-dimethyl-1H-pyrrolo[2,3-c]pyridin-7-ylmethyl)-N-(4-fluorophenyl)-methylamine hydrochloride] showed an IC50 of 0.151 µM. Compound `Cc1c(C)n(Cc2ccc(Cl)cc2)c2c(CN(C)c3ccc(F)cc3)nccc12` [Example 113, N-[1-(4-chlorobenzyl)-2,3-dimethyl-1H-pyrrolo[2,3-c]pyridin-7-ylmethyl]-N-(4-fluorophenyl)-methylamine hydrochloride] has an IC50 of 0.327 µM. For `Cc1c(C)n(Cc2cccc(F)c2)c2c(CN(C)c3ccc(F)cc3)nccc12` [Example 114, N-[1-(3-fluorobenzyl)-2,3-dimethyl-1H-pyrrolo[2,3-c]pyridin-7-ylmethyl]-N-(4-fluorophenyl)-methylamine hydrochloride], the IC50 was 0.027 µM. `Cc1c(C)n(Cc2ccccc2F)c2c(CN(C)c3ccc(F)cc3)nccc12` [Example 115, N-[1-(2-fluorobenzyl)-2,3-dimethyl-1H-pyrrolo[2,3-c]pyridin-7-ylmethyl]-N-(4-fluorophenyl)-methylamine hydrochloride] was tested, and the IC50 was 0.142 µM. Compound `COc1cccc(Cn2c(C)c(C)c3ccnc(CN(C)c4ccc(F)cc4)c32)c1` [Example 116, N-(4-fluorophenyl)-N-[1-(3-methoxybenzyl)-2,3-dimethyl-1H-pyrrolo[2,3-c]pyridin-7-ylmethyl]-methylamine hydrochloride] has an IC50 of 0.048 µM. `Cc1ccc(Cn2c(C)c(C)c3ccnc(CN(C)c4ccc(F)cc4)c32)cc1` [Example 117, N-[2,3-dimethyl-1-(4-methylbenzyl)-1H-pyrrolo[2,3-c]pyridin-7-ylmethyl]-N-(4-fluorophenyl)-methylamine hydrochloride] gave an IC50 of 0.046 µM. In the case of `Cc1c(C)n(Cc2ccc(F)cc2)c2c(CN(C)c3ccc(F)cc3)nccc12` [Example 118, N-[1-(4-fluorobenzyl)-2,3-dimethyl-1H-pyrrolo[2,3-c]pyridin-7-ylmethyl]-N-(4-fluorophenyl)-methylamine hydrochloride], the IC50 is reported as 0.332 µM. Work on `CC(C)=CCn1c(C)c(C)c2ccnc(CN(C)c3ccc(F)cc3)c21` [Example 119, N-[2,3-dimethyl-1-(3-methylbut-2-enyl)-1H-pyrrolo[2,3-c]pyridin-7-ylmethyl]-N-(4-fluorophenyl)-methylamine hydrochloride] yielded an IC50 of 0.405 µM. In the case of `COCCn1c(C)c(C)c2ccnc(CN(C)c3ccc(F)cc3)c21` [Example 120, N-(4-fluorophenyl)-N-[1-(2-methoxyethyl)-2,3-dimethyl-1H-pyrrolo[2,3-c]pyridin-7-ylmethyl]-methylamine hydrochloride], the IC50 is reported as 0.444 µM. `Cc1cccc(Cn2c(C)c(C)c3ccnc(CN(C)c4ccc(F)cc4)c32)c1` [Example 126, N-[2,3-dimethyl-1-(3-methylbenzyl)-1H-pyrrolo[2,3-c]pyridin-7-ylmethyl]-N-(4-fluorophenyl)-methylamine hydrochloride] was tested, and the IC50 was 0.397 µM. `C=CCn1c(C)c(C)c2ccnc(N(C)Cc3ccc(F)cc3)c21` [Example 140, 1-allyl-7-[N-(4-fluorobenzyl)-N-methyl]amino-2,3-dimethyl-1H-pyrrolo[2,3-c]pyridine hydrochloride] was tested, and the IC50 was 0.24 µM. `COCCn1c(C)c(C)c2ccnc(N(C)Cc3ccc(F)cc3)c21` [Example 143, 7-[N-(4-fluorobenzyl)-N-methyl]amino-1-(2-methoxyethyl)-2,3-dimethyl-1H-pyrrolo[2,3-c]pyridine hydrochloride] was tested, and the IC50 was 0.3 µM. `Cc1c(C)n(CC2CC2)c2c(N(C)Cc3ccc(F)cc3)nccc12` [Example 144, 1-cyclopropylmethyl-7-[N-(4-fluorobenzyl)-N-methyl]amino-2,3-dimethyl-1H-pyrrolo[2,3-c]pyridine hydrochloride] was tested, and the IC50 was 0.2 µM. `Cc1c(C)n(Cc2ccccc2F)c2c(N(C)Cc3ccc(F)cc3)nccc12` [Example 147, 1-(2-fluorobenzyl)-7-[N-(4-fluorobenzyl)-N-methyl]amino-2,3-dimethyl-1H-pyrrolo[2,3-c]-pyridine hydrochloride] was tested, and the IC50 was 0.2 µM. Compound `Cc1c(C)n(CC(C)C)c2c(N(C)Cc3ccc(F)cc3)nccc12` [Example 149, 7-[N-(4-fluorobenzyl)-N-methyl]amino-1-isobutyl-2,3-dimethyl-1H-pyrrolo[2,3-c]pyridine hydrochloride] has an IC50 of 0.21 µM. `CCCn1c(C)c(C)c2ccnc(N(C)Cc3ccc(F)cc3)c21` [Example 150, 7-[N-(4-fluorobenzyl)-N-methyl]amino-2,3-dimethyl-1-propyl-1H-pyrrolo[2,3-c]pyridine hydrochloride] gave an IC50 of 0.34 µM. Work on `COc1cccc(Cn2c(C)c(C)c3ccnc(N(C)Cc4ccc(F)cc4)c32)c1` [Example 151, 7-[N-(4-fluorobenzyl)-N-methyl]amino-1-(3-methoxybenzyl)-2,3-dimethyl-1H-pyrrolo[2,3-c]pyridine hydrochloride] yielded an IC50 of 0.34 µM. `Cc1ccc(Cn2c(C)c(C)c3ccnc(N(C)Cc4ccc(F)cc4)c32)cc1` [Example 152, 7-[N-(4-fluorobenzyl)-N-methyl]amino-2,3-dimethyl-1-(4-methylbenzyl)-1H-pyrrolo[2,3-c]pyridine hydrochloride] gave an IC50 of 0.17 µM. Compound `Cc1c(C)n(Cc2ccc(F)cc2)c2c(N(C)Cc3ccc(F)cc3)nccc12` [Example 155, 1-(4-fluorobenzyl)-7-[N-(4-fluorobenzyl)-N-methyl]amino-2,3-dimethyl-1H-pyrrolo[2,3-c]pyridine hydrochloride] has an IC50 of 0.4 µM. `COc1ccc(Cn2c(C)c(C)c3ccnc(N(C)Cc4ccc(F)cc4)c32)cc1` [Example 156, 7-[N-(4-fluorobenzyl)-N-methyl]amino-1-(4-methoxybenzyl)-2,3-dimethyl-1H-pyrrolo[2,3-c]pyridine hydrochloride] gave an IC50 of 0.31 µM.
